Measured values as given in ChEMBL document CHEMBL2331134, “Design and synthesis of 3,5-diaryl-4,5-dihydro-1H-pyrazoles as new tyrosinase inhibitors” (Bioorg Med Chem, 2013).
Active and inactive are the calls of the source. The calls are words filed in the database; no cut-off is given here.

Legend:
[1] = target: T1, Tyrosinase (Agaricus bisporus, UniProt O42713)
T1 sequence (O42713 whole entry): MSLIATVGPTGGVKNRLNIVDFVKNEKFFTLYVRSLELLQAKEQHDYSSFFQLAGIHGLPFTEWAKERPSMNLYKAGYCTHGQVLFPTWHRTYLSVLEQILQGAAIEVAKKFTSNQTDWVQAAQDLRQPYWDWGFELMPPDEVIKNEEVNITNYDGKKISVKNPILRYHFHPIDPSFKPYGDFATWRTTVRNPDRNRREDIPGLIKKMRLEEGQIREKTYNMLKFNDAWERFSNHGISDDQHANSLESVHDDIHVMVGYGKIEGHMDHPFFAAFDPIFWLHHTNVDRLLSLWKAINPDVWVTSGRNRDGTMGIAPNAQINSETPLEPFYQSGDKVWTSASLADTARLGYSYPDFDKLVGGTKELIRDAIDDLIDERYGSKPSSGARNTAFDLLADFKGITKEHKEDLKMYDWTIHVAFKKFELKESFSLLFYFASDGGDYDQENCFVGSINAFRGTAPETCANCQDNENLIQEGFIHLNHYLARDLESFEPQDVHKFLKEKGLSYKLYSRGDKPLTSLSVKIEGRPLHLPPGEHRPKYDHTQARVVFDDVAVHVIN
Description: Inhibition of mushroom tyrosinase assessed as reduction in diphenolase activity using L-DOPA substrate pre-incubated for 20 mins at 30 degC

[2] = target: T2, Tyrosinase (Agaricus bisporus) (UniProt O42713); assay: Competitive inhibition of mushroom tyrosinase assessed as reduction in L-DOPA oxidation by Lineweaver-Burk plot
T2 sequence (whole entry): T1 sequence (O42713 whole entry)

IC50 [1]	inhibition [2]	Compound
147 µM		CC(=O)N1N=C(c2ccc(O)cc2)CC1c1cccc(O)c1 (stereo unspecified)
	Active	O=C(OCc1ccc(O)cc1)c1ccc(O)cc1O
0.301 µM	Active	COc1cc(C2CC(c3ccc(O)cc3O)=NN2C(C)=O)ccc1O (stereo unspecified)
161 µM		CC(=O)N1N=C(c2cc(O)cc(O)c2)CC1c1ccc(O)cc1 (stereo unspecified)
> 200 µM		COc1cc(O)ccc1C1CC(c2ccccc2O)=NN1C(C)=O (stereo unspecified)
3.51 µM		CC(=O)N1N=C(c2ccc(O)cc2)CC1c1ccc(O)cc1 (stereo unspecified)
0.882 µM	Active	Oc1ccc(C2CC(c3ccc(O)cc3O)=NN2)cc1 (stereo unspecified)
2 µM		COc1cc(OC)cc(-c2nc(-c3ccc(O)cc3O)cs2)c1
> 200 µM		O=c1cc(-c2ccc(O)cc2O)oc2cc(O)cc(O)c12 [NORARTOCARPETIN]
2.43 µM		COc1cc(C2CC(c3ccc(O)cc3O)=NN2)ccc1O (stereo unspecified)
13.4 µM		COc1cc(C2CC(c3ccccc3O)=NN2C(C)=O)ccc1O (stereo unspecified)
0.837 µM	Active	Oc1cccc(C2CC(c3ccc(O)cc3O)=NN2)c1 (stereo unspecified)
1.07 µM		CC(=O)N1N=C(c2ccc(O)cc2)CC1c1ccc(O)c(O)c1 (stereo unspecified)
> 200 µM		CC(=O)N1N=C(c2ccccc2O)CC1c1ccc(O)c(O)c1 (stereo unspecified)
11.8 µM		Oc1ccc(C2CC(c3ccccc3O)=NN2)cc1 (stereo unspecified)
	Active	O=C(/C=C/c1ccc(O)cc1O)c1ccc(O)cc1O
> 200 µM		COc1cc(C2CC(c3ccc(O)cc3)=NN2C(C)=O)ccc1O (stereo unspecified)
0.863 µM	Active	CC(=O)N1N=C(c2ccc(O)cc2O)CC1c1cccc(O)c1 (stereo unspecified)
	Active	O=C1CC(c2ccc(O)cc2O)Oc2cc(O)cc(O)c21 (stereo unspecified)
> 200 µM		CC(=O)N1N=C(c2ccc(O)cc2O)CC1c1ccc(O)c([N+](=O)[O-])c1 (stereo unspecified)
13.1 µM		CC(=O)N1N=C(c2ccccc2O)CC1c1ccc(O)cc1 (stereo unspecified)
2.74 µM	Active	CC(=O)N1N=C(c2ccc(O)cc2O)CC1c1ccc(O)c(O)c1 (stereo unspecified)
1.69 µM	Active	CC(=O)N1N=C(c2ccc(O)cc2O)CC1c1ccc(O)cc1 (stereo unspecified)
> 200 µM		CC(=O)N1N=C(c2ccccc2O)CC1c1cccc(O)c1 (stereo unspecified)
> 200 µM		CC(=O)N1N=C(c2cc(O)cc(O)c2)CC1c1cccc(O)c1 (stereo unspecified)
